{
  "source": "patent US20140328795A1",
  "about": "“VIRUCIDAL SMALL MOLECULE AND USES THEREOF” (The Texas A&M University System, priority 2012, published 2014)",
  "key": {"SIV": {"test_system": "SIV", "assay": "SIV infectivity assay in TZM-bl cells (β-galactosidase)", "assay_type": "cell-based", "details": "Simian immunodeficiency virus; for IC90: IC90 per footnote, read-out: IC50 (the source's name)"}, "HIV-2": {"test_system": "HIV-2", "assay": "HIV-2 infectivity assay in TZM-bl cells (β-galactosidase)", "assay_type": "cell-based", "details": "Human immunodeficiency virus 2, TZM-bl, PD in DMEM with 10% fetal bovine serum, IC90 per footnote, read-out: IC50 (the source's name)"}, "Lactobacillus crispatus": {"test_system": "Lactobacillus crispatus", "assay": "Lactobacillus toxicity testing (CFU)", "assay_type": "cell-based", "details": "37° C.", "protocol": "(§1) Reference strains of L. crispatus and L. jensenii were obtained from the ATCC (Manassas, Va.) and cultured on Columbia blood agar plates at 35° C. in air enriched with 6% CO2. Bacterial suspensions were prepared in saline or ACES buffer to a density of 2 McFarland units (˜2×10^8 bacteria/mL), and exposed to PD (300 μM) or DMSO (10%) for 30 minutes at 37° C. After incubation, the cells were serially diluted in ACES buffer, pH 7.0 (Sigma-Aldrich, St. Louis, Mo.) and plated on blood agar plates to quantify colony forming unit per mL (CFU/mL)\n(§2) Different bacterial strains were incubated with 300 μM PD or solvent DMSO-containing control media at 37° C. for 30 min and plated on blood agar plates to estimate their corresponding colony forming units per ml (CFU/ml). Less than 1 log difference between control and test CFU is considered non-toxic17."}, "Lactobacillus jensenii": {"test_system": "Lactobacillus jensenii", "assay": "Lactobacillus toxicity testing (CFU)", "assay_type": "cell-based", "details": "37° C.", "protocol": "as §1, §2"}, "HCVcc [1]": {"test_system": "HCVcc", "design": "species or system HCV"}, "HCVcc [2]": {"test_system": "HCVcc", "assay_type": "cell-based, HCV"}, "Sindbis virus (SINV)": {"test_system": "Sindbis virus (SINV)", "assay_type": "cell-based"}, "Dengue virus (DenV)": {"test_system": "Dengue virus (DenV)", "assay": "Dengue virus plaque assay on Vero cells", "assay_type": "cell-based, Serotype 2 New Guinea C strain Dengue virus", "details": "300 μM PD"}, "HIV-1 (R5 JR-CSF)": {"test_system": "HIV-1 (R5 JR-CSF)", "assay": "Antiviral effect of PD before, during and after HIV-1 exposure (TZM-bl)", "assay_type": "cell-based"}, "VSV-Gpp": {"test_system": "VSV-Gpp", "assay_type": "physicochemical", "details": "pH 7"}, "HSV-1 (Syn 17)": {"test_system": "HSV-1 (Syn 17)", "assay_type": "cell-based", "details": "2 μM and 0.2 μM PD", "protocol": "(§3) FIGS. 16A-16B depict effectiveness of PD against HSV. PD blocks HSV infection. Vero cells were seeded in a 24-well plate and infected with HSV-1 (Syn 17) or HSV-2 (333) (FIG. 16A). PD (200 nM) or control DMSO (0.01%) was added immediately to the target cells after viral inoculation. Two days later, the cells were harvested, stained with antibody against HSV glycoprotein gD and analyzed by flow cytometry. Error bars represent standard deviation of triplicate samples. Results are representative of two independent experiments. PD Destabilizes HSV particles (FIG. 16B). Concentrated HSV (˜20 μg/mL) was incubated with DMSO (0.01%) or PD (200 nM) for 30 min at 37° C. and the mixture was immediately loaded over a 20-70% sucrose density gradient. The amount of HSV glycoprotein gpB in each fraction was analyzed by ELISA. The sucrose gradient density of each fraction was determined by measuring the refractive index. Results are representative of 2 independent experiments. Error bars represent the standard deviation of triplicate samples.\n(§4) Vero cells (2×10^5 cells/well) were seeded in a 24 well plate. The next day, these cells were infected with increasing titers (MOI range 0.0001-1) of HSV-1 (Syn 17) or HSV-2 (333) in the presence of PD (2 μM and 200 nM) or control DMSO (0.01%) prepared in DMEM in the absence of serum. Two days post-inoculation, cells were harvested, fixed with 5% paraformaldehyde (PFA) in PBS, stained with antibodies against HSV glycoprotein gD (Novus biological, Littleton, Colo.) and analyzed by flow cytometry.\n(§5) Applicants investigated the ability of PD to inactivate HSV-1 and -2. Vero cells were infected with HSV-1 and HSV-2 in the presence of PD (2 μM and 0.2 μM) or DMSO (0.01%). These concentrations were selected based on their closeness to the in vitro IC50 of PD against HIV-1. Infection was quantified by the cell surface expression of HSV gD. […] Similar results were obtained for both concentrations and the data from the lowest concentration is presented."}, "HSV-2 (333)": {"test_system": "HSV-2 (333)", "assay_type": "cell-based", "details": "2 μM and 0.2 μM PD", "protocol": "as §3, §4, §5"}, "HSV-1 virions": {"test_system": "HSV-1 virions", "details": "0.2 μM PD, 30 min, 37° C.; 20-70% sucrose gradient", "protocol": "as §3, with “Concentrated HSV (˜20 μg/mL) was incubated with DMSO (0.01%) or PD (200 nM) for 30 min at 37° C. and the mixture was immediately loaded over a 20-70% sucrose density gradient.” left out, “Results are representative of 2 independent experiments. Error bars represent the standard deviation of triplicate samples.” left out\nHSV was concentrated by loading 30 mL HSV-1-infected Vero cell supernatant on a 20% sucrose cushion and centrifuged in a SW28 rotor at 20,000 rpm for 1 h at 4° C. […] After ultracentrifugation at 30,000 rpm for 24 h in a SW-41 T rotor at 4° C., fractions of 1 mL were collected and analyzed for HSV gpB content by enzyme-linked immunosorbent assay (ELISA) using homemade rabbit polyclonal antibody. The density of each fraction from the sucrose gradient was determined by measuring the refractive index.\nApplicants also investigated whether PD can disrupt the structure of HSV virions. […] Each gradient fraction was analyzed for HSV glycoprotein gpB by ELISA. […]"}, "[3]": {"details": "SIVsyk1.2, PD in DMEM with 10% fetal bovine serum"}},
  "note": "Entries after “also recorded” stand apart in the source; their conditions may differ. Read-outs that look alike come from different tables or passages of the source.",
  "data": [
    {"smiles": "N=C1Sc2ccccc2C2=NCCCN12", "note": "[PD, PD 404,182]", "values": [
      {"measurement": "IC90", "setting": "SIV; SIVmoc251 32H, PD in DMEM with 10% fetal bovine serum", "result": 6.2, "unit": "µM"},
      {"measurement": "IC50", "setting": "SIV; [3]", "result": 1800, "unit": "nM"},
      {"measurement": "IC90", "setting": "SIV; [3]", "result": 5.4, "unit": "µM"},
      {"measurement": "IC90", "setting": "HIV-2; HIV-2OD 0310342", "result": 4.7, "unit": "µM"},
      {"measurement": "IC90", "setting": "HIV-2; HIV-27312A", "result": 6.6, "unit": "µM"},
      {"measurement": "CFU of Lactobacillus treated with 300 μM PD", "setting": "Lactobacillus crispatus; Lactobacillus crispatus ATCC 33197, 30 min", "result": "7,260,000 CFU/ml"},
      {"measurement": "Log(Control)-Log(PD)", "setting": "Lactobacillus crispatus; Lactobacillus crispatus ATCC 33197, 300 μM PD, 30 min", "result": "−0.019"},
      {"measurement": "CFU of Lactobacillus treated with 300 μM PD", "setting": "Lactobacillus jensenii; Lactobacillus jensenii ATCC 25258, 30 min", "result": "7,533,333 CFU/ml"},
      {"measurement": "CFU of Lactobacillus treated with 300 μM PD", "setting": "Lactobacillus jensenii; Lactobacillus jensenii LBP 28Ab, 30 min", "result": "10,033,333 CFU/ml"},
      {"measurement": "Log(Control)-Log(PD)", "setting": "Lactobacillus jensenii; Lactobacillus jensenii LBP 28Ab, 300 μM PD, 30 min", "result": "−0.021"},
      {"measurement": "HCVcc virion lysis", "setting": "HCVcc [1]", "result": "Little to no virion lysis"},
      {"measurement": "attachment of PD-treated HCVcc to cells", "setting": "HCVcc [2]", "result": "binds to cells comparably to control DMSO-treated virus; also recorded: slight decrease in attachment"},
      {"measurement": "effect on infectivity of SINV", "setting": "Sindbis virus (SINV)", "result": "no significant inhibitory effect"},
      {"measurement": "effect on infectivity of DenV", "setting": "Dengue virus (DenV)", "result": "no significant inhibitory effect"},
      {"measurement": "effect on HIV-1 infection", "setting": "HIV-1 (R5 JR-CSF); 10 μM PD added 1, 2, 4 and 8 h after virus inoculation", "result": "loses its antiviral effect"},
      {"measurement": "effect on HIV-1 infection", "setting": "HIV-1 (R5 JR-CSF); 10 μM PD added to cells before the virus", "result": "retains its full potency up to 8 h before the addition of the virus"},
      {"measurement": "effect on HIV-1 infection", "setting": "HIV-1 (R5 JR-CSF); 10 μM PD added together with the virus (time zero)", "result": "significantly inhibits HIV-1 infection"},
      {"measurement": "effect on HIV-1 infection", "setting": "HIV-1 (R5 JR-CSF); extended (>16 h) preincubation of PD with cells prior to virus inoculation", "result": "significantly reduces the compound's antiviral efficacy"},
      {"measurement": "long-term stability", "setting": "VSV-Gpp", "result": "not stable"},
      {"measurement": "effect on HSV-1 infection", "setting": "HSV-1 (Syn 17); MOI 1", "result": "partial protection"},
      {"measurement": "effect on HSV-1 infection", "setting": "HSV-1 (Syn 17); MOI from 0.0001 to 0.1", "result": "inhibit both HSV-1 and HSV-2 infection"},
      {"measurement": "effect on HSV-2 infection", "setting": "HSV-2 (333); MOI 1", "result": "partial protection"},
      {"measurement": "effect on HSV-2 infection", "setting": "HSV-2 (333); MOI from 0.0001 to 0.1", "result": "inhibit both HSV-1 and HSV-2 infection"},
      {"measurement": "sedimentation of HSV gpB in sucrose gradient", "setting": "HSV-1 virions", "result": "all gpB distributed to the top of the gradient"}
    ]}
  ]
}
